In the CheMixHub viscosity set:

Test: xn = mol fraction of the nth substance listed

Cc1ccccc1C + Cc1ccc(C)cc1
101.3 kPa
Conditions	viscosity [mPa·s]
298.15 K, x1 = 0.0748	0.6114
298.15 K, x1 = 0.1866	0.6242
298.15 K, x1 = 0.3032	0.641
298.15 K, x1 = 0.4147	0.6549
298.15 K, x1 = 0.5702	0.6779
298.15 K, x1 = 0.6823	0.6995
298.15 K, x1 = 0.8109	0.7176
298.15 K, x1 = 0.9402	0.7417
303.15 K, x1 = 0.0902	0.5764
303.15 K, x1 = 0.2065	0.5904
303.15 K, x1 = 0.3178	0.604
303.15 K, x1 = 0.4339	0.6204
303.15 K, x1 = 0.4577	0.6237
303.15 K, x1 = 0.5832	0.642
303.15 K, x1 = 0.6243	0.6474
303.15 K, x1 = 0.7864	0.6729
303.15 K, x1 = 0.8933	0.6889

Cc1ccccc1C + Cc1cccc(C)c1
viscosity [mPa·s], 101.3 kPa
Conditions	x1 = 0.0817	x1 = 0.1825	x1 = 0.2946	x1 = 0.4285	x1 = 0.5533	x1 = 0.6715	x1 = 0.7904	x1 = 0.9	x1 = 0.9001
298.15 K	0.5998	0.6144	0.6303	0.6512	0.6731	0.6924	0.7148	0.7349	–
303.15 K	0.5668	0.5783	0.5938	0.6119	0.631	0.6486	0.6675	–	0.6859

CC(C)CCC[C@@H](C)[C@H]1CC[C@H]2[C@@H]3CC=C4C[C@@H](O)CC[C@]4(C)[C@H]3CC[C@]12C + Cc1ccccc1
viscosity [mPa·s], 101.33 kPa
Conditions	x1 = 0.0038	x1 = 0.00638	x1 = 0.01075	x1 = 0.01353	x1 = 0.01707	x1 = 0.02159	x1 = 0.02737	x1 = 0.03485
298 K	0.567	0.579	0.604	0.616	0.639	0.672	0.716	0.787
303 K	0.534	0.546	0.569	0.579	0.599	0.628	0.668	0.731
313 K	0.478	0.488	0.508	0.515	0.533	0.556	0.591	0.64
323 K	0.432	0.44	0.458	0.464	0.476	0.497	0.523	0.562

CCCCCCCCCCO + Cc1ccccc1
viscosity [mPa·s], 101 kPa
Conditions	298.15 K	308.15 K
x2 = 0.0507	10.3	7.108
x2 = 0.1015	9.101	6.203
x2 = 0.1473	8.207	5.499
x2 = 0.2091	7.146	4.673
x2 = 0.2577	6.303	4.079
x2 = 0.3006	5.584	3.647
x2 = 0.3496	4.913	3.173
x2 = 0.4028	4.195	2.786
x2 = 0.4516	3.678	2.398
x2 = 0.4989	3.222	2.122
x2 = 0.5497	2.797	1.832
x2 = 0.6009	2.439	1.569
x2 = 0.6498	2.13	1.393
x2 = 0.7065	1.819	1.159
x2 = 0.7524	1.537	1.047
x2 = 0.8069	1.308	0.858
x2 = 0.8472	1.071	0.798
x2 = 0.9063	0.807	0.687
x2 = 0.953	0.608	0.585

Cc1ccccc1C + Cc1ccccc1
viscosity [mPa·s], 101.33 kPa
Conditions	x2 = 0.3003	x2 = 0.3607	x2 = 0.5223	x2 = 0.6669	x2 = 0.8205
293.15 K	0.722	0.708	0.67	0.64	0.616
303.15 K	0.636	0.626	0.601	0.567	0.546
313.15 K	0.568	0.557	0.528	0.508	0.489
323.15 K	0.507	0.5	0.472	0.456	0.441

CC(C)CCC[C@@H](C)[C@H]1CC[C@H]2[C@@H]3CC=C4C[C@@H](O)CC[C@]4(C)[C@H]3CC[C@]12C + ClC(Cl)(Cl)Cl
viscosity [mPa·s], 101.33 kPa
Conditions	x1 = 0.0058	x1 = 0.00978	x1 = 0.0123	x1 = 0.01552	x1 = 0.01963	x1 = 0.02491	x1 = 0.03174
298 K	0.983	1.04	1.077	1.136	1.219	1.328	1.491
303 K	0.912	0.962	0.996	1.045	1.12	1.212	1.355
313 K	0.797	0.836	0.858	0.898	0.953	1.024	1.134
323 K	0.705	0.738	0.753	0.785	0.826	0.881	0.96

COCCOCCO + ClC(Cl)=C(Cl)Cl
298.15 K, 101.33 kPa
Conditions	viscosity [mPa·s]
x1 = 0.0072	0.852
x1 = 0.0147	0.859
x1 = 0.0261	0.869
x1 = 0.0417	0.884
x1 = 0.0604	0.911
x1 = 0.0868	0.948
x1 = 0.1038	0.975
x1 = 0.1347	1.023
x1 = 0.1769	1.092
x1 = 0.2025	1.139
x1 = 0.2433	1.216
x1 = 0.2755	1.279
x1 = 0.3041	1.34
x1 = 0.3353	1.413
x1 = 0.374	1.504
x1 = 0.4127	1.596
x1 = 0.4577	1.712
x1 = 0.4877	1.796
x1 = 0.5213	1.9
x1 = 0.5632	2.03
x1 = 0.5988	2.14
x1 = 0.6333	2.253
x1 = 0.6701	2.366
x1 = 0.7061	2.48
x1 = 0.7414	2.593
x1 = 0.7892	2.754
x1 = 0.8427	2.948
x1 = 0.8844	3.109
x1 = 0.9138	3.225
x1 = 0.9381	3.323
x1 = 0.9613	3.414
x1 = 0.978	3.478
x2 = 0.0115	3.521

CC(C)CCC[C@@H](C)[C@H]1CC[C@H]2[C@@H]3CC=C4C[C@@H](O)CC[C@]4(C)[C@H]3CC[C@]12C + ClC(Cl)Cl
viscosity [mPa·s], 101.33 kPa
Conditions	x1 = 0.00286	x1 = 0.0048	x1 = 0.0081	x1 = 0.0138	x1 = 0.01748	x1 = 0.0223	x1 = 0.02849	x1 = 0.03663
298 K	0.557	0.57	0.594	0.638	0.667	0.709	0.766	0.848
303 K	0.534	0.547	0.568	0.608	0.635	0.673	0.724	0.798
313 K	0.494	0.504	0.522	0.555	0.578	0.609	0.652	0.712
323 K	0.459	0.468	0.483	0.511	0.529	0.555	0.589	0.637

Cc1ccccc1C + ClC(Cl)Cl
298.15 K, 101 kPa
Conditions	viscosity [mPa·s]
x2 = 0.262	0.739
x2 = 0.3694	0.725
x2 = 0.5222	0.6941
x2 = 0.5776	0.682
x2 = 0.6279	0.6691
x2 = 0.6624	0.6592
x2 = 0.7082	0.6482
x2 = 0.7562	0.6348
x2 = 0.7944	0.6224

c1ccc(Oc2ccccc2)cc1 + ClC(Cl)Cl
298.15 K, 101 kPa
Conditions	viscosity [mPa·s]
x1 = 0.3136	2.22
x1 = 0.5696	1.39
x1 = 0.817	0.83

COCCOCCO + ClC=C(Cl)Cl
298.15 K, 101.33 kPa
Conditions	viscosity [mPa·s]
x1 = 0.0091	0.537
x1 = 0.0258	0.553
x1 = 0.0362	0.567
x1 = 0.0477	0.582
x1 = 0.0679	0.61
x1 = 0.0896	0.643
x1 = 0.1146	0.685
x1 = 0.1489	0.742
x1 = 0.187	0.817
x1 = 0.2425	0.926
x1 = 0.2811	1.009
x1 = 0.3123	1.082
x1 = 0.3733	1.237
x1 = 0.4192	1.356
x1 = 0.4582	1.467
x1 = 0.4988	1.587
x1 = 0.541	1.725
x1 = 0.5789	1.849
x1 = 0.608	1.948
x1 = 0.6351	2.044
x1 = 0.6756	2.194
x1 = 0.7372	2.433
x1 = 0.7781	2.596
x1 = 0.811	2.73
x1 = 0.8467	2.882
x1 = 0.8774	3.015
x1 = 0.9167	3.194
x1 = 0.9481	3.329
x1 = 0.9733	3.449
x2 = 0.0104	3.531

CC(C)CCC[C@@H](C)[C@H]1CC[C@H]2[C@@H]3CC=C4C[C@@H](O)CC[C@]4(C)[C@H]3CC[C@]12C + ClCCCl
viscosity [mPa·s], 101.33 kPa
Conditions	298 K	303 K	313 K	323 K
x1 = 0.00307	0.794	0.743	0.659	0.587
x1 = 0.00516	0.812	0.761	0.673	0.599
x1 = 0.00648	0.825	0.772	0.682	0.608
x1 = 0.00816	0.84	0.785	0.692	0.619

c1ccc(Oc2ccccc2)cc1 + NCc1ccccc1
303.15 K, 101 kPa
Conditions	viscosity [mPa·s]
x2 = 0.1488	2.696
x2 = 0.2823	2.409
x2 = 0.4028	2.179
x2 = 0.512	1.991
x2 = 0.6114	1.839
x2 = 0.7024	1.714
x2 = 0.786	1.613
x2 = 0.8629	1.531
x2 = 0.934	1.465
